According to patent US20050142581A1, “Microrna as ligands and target molecules” (priority 2003, published 2005):
Oligonucleotides are written 5' to 3', each unit as a sugar letter and its base; * is a phosphorothioate linkage, no mark a phosphodiester; rarer units and linkages stand in square brackets, end groups in braces. Plain capitals give the bases only. e = 2'-O-(2-methoxyethyl) (MOE); [5mC] = 5-methylcytosine; d = 2'-deoxy (DNA)

Each substance was assayed on human CD40 mRNA (assay: Inhibition of CD40 mRNA levels by oligonucleotides (real-time RT-PCR)). Conditions: 2'-MOE gapmers, 18 nucleotides, phosphorothioate throughout; averaged from three experiments.
Assay type: cell-based
Design: concentration or dose not given beside the values
Summary of the method: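 Cells at ~80% confluency were transfected with oligonucleotide at 150 nM final using Lipofectin 3.75 μg/ml for 4 h and harvested 16 h after treatment. Poly(A)+ mRNA was taken for TaqMan real-time RT-PCR of CD40, and percent inhibition was derived from a standard curve of untreated control mRNA.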

Substance | % Inhibition (Inhibition of CD40 mRNA Levels by Chimeric Phosphorothioate Oligonucleotides) [%]
19233 (antisense eA*eT*eT*e[5mC]*dC*dG*dT*dT*dT*dC*dA*dG*dT*dG*eA*eA*e[5mC]*eT) [compound 19233] | 56.03
19234 (antisense eG*eA*eA*eG*dG*dC*dA*dT*dT*dC*dC*dG*dT*dT*eT*e[5mC]*eA*eG) [compound 19234] | 32.21
19235 (antisense eT*eT*e[5mC]*eA*dC*dC*dG*dC*dA*dA*dG*dG*dA*dA*eG*eG*e[5mC]*eA) [compound 19235] | 61.03
19236 (antisense e[5mC]*eT*e[5mC]*eT*dG*dT*dT*dC*dC*dA*dG*dG*dT*dG*eT*e[5mC]*eT*eA) [compound 19236] | 62.19
19237 (antisense e[5mC]*eT*eG*eG*dT*dG*dG*dC*dA*dG*dT*dG*dT*dG*eT*e[5mC]*eT*e[5mC]) [compound 19237] | 70.32
19238 (antisense eT*eG*eG*eG*dG*dT*dC*dG*dC*dA*dG*dT*dA*dT*eT*eT*eG*eT) [compound 19238] | 0.00
19239 (antisense eG*eG*eT*eT*dG*dG*dG*dG*dT*dC*dG*dC*dA*dG*eT*eA*eT*eT) [compound 19239] | 19.40
19240 (antisense e[5mC]*eT*eA*eG*dG*dT*dT*dG*dG*dG*dG*dT*dC*dG*e[5mC]*eA*eG*eT) [compound 19240] | 36.32
19241 (antisense eG*eG*eT*eG*dC*dC*dC*dT*dT*dC*dT*dG*dC*dT*eG*eG*eA*e[5mC]) [compound 19241] | 78.91
19242 (antisense e[5mC]*eT*eG*eA*dG*dG*dT*dG*dC*dC*dC*dT*dT*dC*eT*eG*e[5mC]*eT) [compound 19242] | 69.84
19243 (antisense eG*eT*eG*eT*dC*dT*dG*dT*dT*dT*dC*dT*dG*dA*eG*eG*eT*eG) [compound 19243] | 63.32
19244 (antisense eT*eG*eG*eT*dG*dT*dC*dT*dG*dT*dT*dT*dC*dT*eG*eA*eG*eG) [compound 19244] | 42.83
19245 (antisense eA*e[5mC]*eA*eG*dG*dT*dG*dC*dA*dG*dA*dT*dG*dG*eT*eG*eT*e[5mC]) [compound 19245] | 73.31
19246 (antisense eT*eT*e[5mC]*eA*dC*dA*dG*dG*dT*dG*dC*dA*dG*dA*eT*eG*eG*eT) [compound 19246] | 47.72
19247 (antisense eG*eT*eG*e[5mC]*dC*dA*dG*dC*dC*dT*dT*dC*dT*dT*e[5mC]*eA*e[5mC]*eA) [compound 19247] | 61.32
19248 (antisense eT*eA*e[5mC]*eA*dG*dT*dG*dC*dC*dA*dG*dC*dC*dT*eT*e[5mC]*eT*eT) [compound 19248] | 46.82
19249 (antisense eG*eG*eA*e[5mC]*dA*dC*dA*dG*dC*dT*dC*dT*dC*dA*e[5mC]*eA*eG*eG) [compound 19249] | 0.00
19250 (antisense eT*eG*e[5mC]*eA*dG*dG*dA*dC*dA*dC*dA*dG*dC*dT*e[5mC]*eT*e[5mC]*eA) [compound 19250] | 52.05
19251 (antisense eG*eA*eG*e[5mC]*dG*dG*dT*dG*dC*dA*dG*dG*dA*dC*eA*e[5mC]*eA*eG) [compound 19251] | 50.15
19252 (antisense eA*eA*eG*e[5mC]*dC*dG*dG*dG*dC*dG*dA*dG*dC*dA*eT*eG*eA*eG) [compound 19252] | 32.36
19253 (antisense eA*eA*eT*e[5mC]*dT*dG*dC*dT*dT*dG*dA*dC*dC*dC*e[5mC]*eA*eA*eA) [compound 19253] | 0.00
19254 (antisense eG*eA*eA*eA*dC*dC*dC*dC*dT*dG*dT*dA*dG*dC*eA*eA*eT*e[5mC]) [compound 19254] | 0.00
19255 (antisense eG*eT*eA*eT*dC*dA*dG*dA*dA*dA*dC*dC*dC*dC*eT*eG*eT*eA) [compound 19255] | 36.13

Substance | % Inhibition (Inhibition of CD40 mRNA Levels by Chimeric Phosphorothioate Oligonucleotides) [%]
19256 (antisense eG*e[5mC]*eT*e[5mC]*dG*dC*dA*dG*dA*dT*dG*dG*dT*dA*eT*e[5mC]*eA*eG) [compound 19256] | 64.65
19257 (antisense eG*e[5mC]*eA*eG*dG*dG*dC*dT*dC*dG*dC*dA*dG*dA*eT*eG*eG*eT) [compound 19257] | 74.95
19258 (antisense eT*eG*eG*eG*dC*dA*dG*dG*dG*dC*dT*dC*dG*dC*eA*eG*eA*eT) [compound 19258] | 0.00
19259 (antisense eG*eA*e[5mC]*eT*dG*dG*dG*dC*dA*dG*dG*dG*dC*dT*e[5mC]*eG*e[5mC]*eA) [compound 19259] | 82.00
19260 (antisense e[5mC]*eA*eT*eT*dG*dG*dA*dG*dA*dA*dG*dA*dA*dG*e[5mC]*e[5mC]*eG*eA) [compound 19260] | 41.31
19261 (eG*eA*eT*eG*dA*dC*dA*dC*dA*dT*dT*dG*dG*dA*eG*eA*eA*eG; antisense) [compound 19261] | 13.81
19262 (eG*e[5mC]*eA*eG*dA*dT*dG*dA*dC*dA*dC*dA*dT*dT*eG*eG*eA*eG; antisense) [compound 19262] | 78.48
19263 (eT*e[5mC]*eG*eA*dA*dA*dG*dC*dA*dG*dA*dT*dG*dA*e[5mC]*eA*e[5mC]*eA; antisense) [compound 19263] | 59.28
19264 (eG*eT*e[5mC]*e[5mC]*dA*dA*dG*dG*dG*dT*dG*dA*dC*dA*eT*eT*eT*eT; antisense) [compound 19264] | 70.99
19265 (e[5mC]*eA*e[5mC]*eA*dG*dC*dT*dT*dG*dT*dC*dC*dA*dA*eG*eG*eG*eT; antisense) [compound 19265] | 0.00
19266 (eT*eT*eG*eG*dT*dC*dT*dC*dA*dC*dA*dG*dC*dT*eT*eG*eT*e[5mC]; antisense) [compound 19266] | 45.92
19267 (e[5mC]*eA*eG*eG*dT*dC*dT*dT*dT*dG*dG*dT*dC*dT*e[5mC]*eA*e[5mC]*eA; antisense) [compound 19267] | 63.95
19268 (e[5mC]*eT*eG*eT*dT*dG*dC*dA*dC*dA*dA*dC*dC*dA*eG*eG*eT*e[5mC]; antisense) [compound 19268] | 82.32
19269 (eG*eT*eT*eT*dG*dT*dG*dC*dC*dT*dG*dC*dC*dT*eG*eT*eT*eG; antisense) [compound 19269] | 70.10
19270 (eG*eT*e[5mC]*eT*dT*dG*dT*dT*dT*dG*dT*dG*dC*dC*eT*eG*e[5mC]*e[5mC]; antisense) [compound 19270] | 68.95
19271 (e[5mC]*e[5mC]*eA*e[5mC]*dA*dG*dA*dC*dA*dA*dC*dA*dT*dC*eA*eG*eT*e[5mC]; antisense) [compound 19271] | 11.22
19272 (e[5mC]*eT*eG*eG*dG*dG*dA*dC*dC*dA*dC*dA*dG*dA*e[5mC]*eA*eA*e[5mC]; antisense) [compound 19272] | 9.04
19273 (eT*e[5mC]*eA*eG*dC*dC*dG*dA*dT*dC*dC*dT*dG*dG*eG*eG*eA*e[5mC]; antisense) [compound 19273] | 0.00
19274 (e[5mC]*eA*e[5mC]*e[5mC]*dA*dC*dC*dA*dG*dG*dG*dC*dT*dC*eT*e[5mC]*eA*eG; antisense) [compound 19274] | 23.08
19275 (eG*eG*eG*eA*dT*dC*dA*dC*dC*dA*dC*dC*dA*dG*eG*eG*e[5mC]*eT; antisense) [compound 19275] | 57.94
19276 (eG*eA*eG*eG*dA*dT*dG*dG*dC*dA*dA*dA*dC*dA*eG*eG*eA*eT; antisense) [compound 19276] | 49.14
19277 (eA*e[5mC]*e[5mC]*eA*dG*dC*dA*dC*dC*dA*dA*dG*dA*dG*eG*eA*eT*eG; antisense) [compound 19277] | 3.48
